Assay [1] addresses Myceliophthora laccase (Thermothelomyces thermophilus, UniProt G2QG31). The assay is described as follows: chloride inhibition of Myceliophthora laccase. As to conditions: read-out: inhibition constant (chloride). The format is biochemical.
Assay [2] deals with tyrosinase (mushroom). As to conditions: pH 2.7. The source says: Chemicals used as buffers and substrates are commercial products of at least reagent grade. Ascorbate oxidase (Cucurbita species), ceruloplasmin (porcine plasma), bilirubin oxidase (Myrothecium verrucaria) and tyrosinase (mushroom) are purchased from Sigma and used as received. The contents of the enzymes in lyophilized powder or solution are confirmed by uv-visible absorption and published extinction coefficients. The stated activity of ascorbate oxidase is confirmed with ascorbic acid.
The extinction coefficient of 36 mM^-1 cm^-1 is used to calculate the rate. Spectroscopic assays are conducted on either a spectrophotometer (Shimadzu UV160) or a microplate reader (Molecular Devices). Britton & Robinson (B & R) buffers are prepared according to a standard protocol (Quelle, Biochemisches Taschenbuch, H. M. Raven, II. Teil, S.93 u. 102, 1964).

Assay [3] addresses T1, recombinant Myceliophthora thermophila laccase (r-MtL) (Thermothelomyces thermophilus, UniProt G2QG31).
T1 sequence (G2QG31 48-602): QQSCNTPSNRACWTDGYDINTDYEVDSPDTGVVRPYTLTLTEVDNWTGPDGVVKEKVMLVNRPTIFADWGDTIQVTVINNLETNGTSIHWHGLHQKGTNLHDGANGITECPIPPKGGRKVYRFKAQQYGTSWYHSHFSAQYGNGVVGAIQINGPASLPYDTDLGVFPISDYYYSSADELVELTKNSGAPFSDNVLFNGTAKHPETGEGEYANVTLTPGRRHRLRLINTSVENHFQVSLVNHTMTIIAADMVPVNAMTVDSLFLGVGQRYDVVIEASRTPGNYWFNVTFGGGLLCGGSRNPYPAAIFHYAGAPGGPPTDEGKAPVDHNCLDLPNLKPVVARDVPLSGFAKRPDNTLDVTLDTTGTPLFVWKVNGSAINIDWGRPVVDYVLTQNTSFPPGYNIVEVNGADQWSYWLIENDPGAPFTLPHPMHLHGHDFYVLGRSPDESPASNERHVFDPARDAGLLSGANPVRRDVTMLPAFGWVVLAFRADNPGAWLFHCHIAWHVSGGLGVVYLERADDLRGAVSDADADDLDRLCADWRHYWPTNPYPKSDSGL
The assay is described as follows: r-MtL-catalyzed ABTS oxidation. The format is biochemical. As for the experimental part:
(§1) Enzymatic assays for determining oxidation of I^- are conducted in B & R buffer containing from 1-20 nM MtL (subunit concentration) and 10 to 200 mM Nal at 20° C. for 5-10 minutes. The extinction coefficient of 26 mM^-1 cm^-1 is used to calculate rate. Oxidation of I^- is spectrally monitored at 340 or 353 nm and the spectrum of the oxidation product is found identical to that of I3 -(Hosoya, Biochem. (Tokyo) 53: 381, 1963). Kinetic parameters are extracted by a non-linear regression fitting (Prism, GraphPad) of rate and concentration data to the equation of rate=Vmax *[substrate]/Km +[substrate].

Assay [4] addresses T1, recombinant Myceliophthora thermophila laccase (r-MtL). Put plainly: r-MtL-catalyzed I^- oxidation. Type of assay: biochemical. As to conditions: pH 3.4. As for the experimental part:
as §1

In assay [5] the target is T2, bilirubin oxidase (Myrothecium verrucaria) (Albifimbria verrucaria, UniProt Q12737).
T2 construct: purchased Sigma
T2 sequence (Q12737 39-572): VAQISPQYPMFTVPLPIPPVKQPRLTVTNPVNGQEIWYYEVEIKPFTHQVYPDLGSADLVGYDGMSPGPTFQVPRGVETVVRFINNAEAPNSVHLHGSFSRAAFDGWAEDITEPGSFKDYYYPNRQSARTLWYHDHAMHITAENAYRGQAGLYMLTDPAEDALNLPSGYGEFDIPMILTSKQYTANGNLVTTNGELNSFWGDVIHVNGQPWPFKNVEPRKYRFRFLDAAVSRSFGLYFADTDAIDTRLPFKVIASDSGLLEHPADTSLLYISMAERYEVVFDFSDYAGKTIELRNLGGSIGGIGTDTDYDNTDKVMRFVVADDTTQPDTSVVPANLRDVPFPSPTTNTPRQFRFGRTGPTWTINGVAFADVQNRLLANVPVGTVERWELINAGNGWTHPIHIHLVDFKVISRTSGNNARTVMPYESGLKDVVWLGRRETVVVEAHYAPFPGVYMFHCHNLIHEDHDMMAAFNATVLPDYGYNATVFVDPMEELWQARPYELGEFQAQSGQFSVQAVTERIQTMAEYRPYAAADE
The assay is described as follows: bilirubin oxidase-catalyzed I^- oxidation. The format is biochemical. As to conditions: optimal pH of 4.1. The protocol:
as §1
(§2) Ascorbate oxidase, ceruloplasmin, bilirubin oxidase, and tyrosinase at concentrations up to μM level are also tested under similar conditions for I^- oxidation catalysis.

For assay [6], the system named is tyrosinase (mushroom). Put plainly: tyrosinase-catalyzed I^- oxidation. Type of assay: biochemical. The following applies: optimal pH of 2.7. As for the experimental part: as §1, §2

The results in this text go back to US5766896A, “Method of producing iodine by use of a copper containing oxidase enzyme” (Novo Nordisk Biotech Inc., priority 1994, dated 1998).

Structures are written as SMILES. Where two headings read alike, the source gives them in different places.

With `Cl` [chloride], the Ki in assay [1] is approximately 70 mM.
Take `CCn1c(=NN=c2sc3cc(S(=O)(=O)O)ccc3n2CC)sc2cc(S(=O)(=O)O)ccc21` [ABTS, 2,2'-azinobis-(3-ethylbenzthiazoline-6-sulfonic acid)]: in assay [2], the “Vmax (ABTS oxidation)” value was found to be 3.1±0.1 turnover per minute. The Michaelis constant (Km) in assay [2] (read-out: Km (ABTS)) is 180 ± 10 µM. Further, in assay [3], the “Km of ABTS, fold smaller in comparison with I^-” value is reported as ~ 10^3 fold and the “Vmax of ABTS, fold larger in comparison with I^-” value is ~ 10^3 fold.
Take `I` [I^-, iodide]: the “Vmax (I^- oxidation)” value in assay [4] is listed as 2.7±0.2 turnover per minute; in assay [5] it was 1.7±0.1 turnover per minute; in assay [6], “ca. 0.1 turnover per minute”. The Km in assay [6] is approximately 100 mM.
